Test results: patent US12252701B2, “Chimeric antigen receptor T cell therapy” (KITE PHARMA, INC., priority 2020, dated 2025)

How the values were obtained:
[1] = test system: Nalm6 cells; assay: Serial killing assay, T-cell (CD4, CD8) and Nalm6 cell counts by flow cytometry; assay type: cell-based, human; conditions: for persistence of T-cells (CD4 and CD8 counts) / serial killing assessed by Nalm6 cells (flow cytometry): E:T ratio of 1:1, dose titration; for impact on T-cell counts and Nalm6 cell counts: E:T ratio of 1:3, dose titration
Procedure: T-cell counts (CD4 and CD8) were assessed by flow cytometry.
Nalm6 cells were assessed by flow cytometry.
T-cell counts (CD4 and CD8) and Nalm6 cells were assessed by flow cytometry.

[2] = biological target: JAK2 (Homo sapiens, UniProt O60674); assay: JAK kinase inhibition biochemical assay (Kinase-Glo Plus luminescence), JAK2; conditions: 10 μM ATP
Sequence of JAK2 (O60674 whole entry): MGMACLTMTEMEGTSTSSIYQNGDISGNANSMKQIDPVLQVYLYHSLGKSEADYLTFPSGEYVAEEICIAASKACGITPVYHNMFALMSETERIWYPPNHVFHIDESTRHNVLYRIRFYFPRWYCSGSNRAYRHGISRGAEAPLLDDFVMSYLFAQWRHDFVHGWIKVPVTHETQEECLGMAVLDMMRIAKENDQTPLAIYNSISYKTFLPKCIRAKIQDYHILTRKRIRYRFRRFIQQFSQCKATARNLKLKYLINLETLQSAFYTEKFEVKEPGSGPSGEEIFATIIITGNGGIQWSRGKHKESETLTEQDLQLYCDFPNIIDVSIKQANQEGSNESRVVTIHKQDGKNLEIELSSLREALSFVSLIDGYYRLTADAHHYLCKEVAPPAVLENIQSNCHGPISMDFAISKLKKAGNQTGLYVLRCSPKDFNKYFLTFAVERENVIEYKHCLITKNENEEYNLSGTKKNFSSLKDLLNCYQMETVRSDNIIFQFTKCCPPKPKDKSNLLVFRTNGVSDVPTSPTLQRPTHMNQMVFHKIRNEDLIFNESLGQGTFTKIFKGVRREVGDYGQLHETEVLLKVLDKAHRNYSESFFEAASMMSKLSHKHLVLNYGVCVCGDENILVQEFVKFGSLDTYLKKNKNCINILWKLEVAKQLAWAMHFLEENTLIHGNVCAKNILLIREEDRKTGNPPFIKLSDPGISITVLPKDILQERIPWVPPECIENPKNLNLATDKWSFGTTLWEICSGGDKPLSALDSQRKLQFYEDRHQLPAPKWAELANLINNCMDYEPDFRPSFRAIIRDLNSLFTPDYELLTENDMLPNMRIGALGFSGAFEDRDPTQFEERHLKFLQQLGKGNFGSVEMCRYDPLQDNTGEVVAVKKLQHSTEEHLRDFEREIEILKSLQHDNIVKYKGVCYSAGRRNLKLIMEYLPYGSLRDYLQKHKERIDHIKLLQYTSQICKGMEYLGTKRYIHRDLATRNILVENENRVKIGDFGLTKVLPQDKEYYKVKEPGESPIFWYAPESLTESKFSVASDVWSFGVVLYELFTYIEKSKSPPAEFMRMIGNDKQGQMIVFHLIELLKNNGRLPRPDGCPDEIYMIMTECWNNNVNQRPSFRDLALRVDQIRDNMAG
Procedure: (§1) JAK kinase inhibition in vitro biochemical assays were performed using Kinase-Glo Plus luminescence kinase assay kit (Promega). Kinase activity was measured by quantitating the amount of ATP remaining in solution following a kinase reaction. Luminescent signal from the assay was correlated with the amount of ATP present and was inversely correlated with the amount of kinase activity. Compounds were diluted in 10% DMSO and 5 μl of the dilution were added to a 50 μl reaction so that the final concentration of DMSO was 1% in all of the reactions. […] All enzymatic reactions were conducted at 30° C. for 45 minutes. […] After the enzymatic reaction, 50 μl of Kinase-Glo Plus Luminescence kinase assay solution (Promega) were added to each reaction and incubated in the plate for 15 minutes at room temperature. Luminescence signal was measured using a Bio-Tek Synergy 2 microplate reader. Kinase activity was performed in duplicate at each concentration and data were analyzed using Graphpad Prism. The difference between luminescence intensities in the absence of Kinase (Lut) and in the presence of Kinase (Luc) was defined as 100% activity (Lut−Luc). Using luminescence signal (Lu) in the presence of the compound, % activity was calculated as: % activity={Lut−Lu)/(Lut−Luc)}×100%, where Lu=the luminescence intensity in the presence of compound.

[3] = biological target: JAK1 (Homo sapiens, UniProt P23458); assay: JAK kinase inhibition biochemical assay (Kinase-Glo Plus luminescence), JAK1; conditions: for IC50: 10 μM ATP
Sequence of JAK1 (P23458 whole entry): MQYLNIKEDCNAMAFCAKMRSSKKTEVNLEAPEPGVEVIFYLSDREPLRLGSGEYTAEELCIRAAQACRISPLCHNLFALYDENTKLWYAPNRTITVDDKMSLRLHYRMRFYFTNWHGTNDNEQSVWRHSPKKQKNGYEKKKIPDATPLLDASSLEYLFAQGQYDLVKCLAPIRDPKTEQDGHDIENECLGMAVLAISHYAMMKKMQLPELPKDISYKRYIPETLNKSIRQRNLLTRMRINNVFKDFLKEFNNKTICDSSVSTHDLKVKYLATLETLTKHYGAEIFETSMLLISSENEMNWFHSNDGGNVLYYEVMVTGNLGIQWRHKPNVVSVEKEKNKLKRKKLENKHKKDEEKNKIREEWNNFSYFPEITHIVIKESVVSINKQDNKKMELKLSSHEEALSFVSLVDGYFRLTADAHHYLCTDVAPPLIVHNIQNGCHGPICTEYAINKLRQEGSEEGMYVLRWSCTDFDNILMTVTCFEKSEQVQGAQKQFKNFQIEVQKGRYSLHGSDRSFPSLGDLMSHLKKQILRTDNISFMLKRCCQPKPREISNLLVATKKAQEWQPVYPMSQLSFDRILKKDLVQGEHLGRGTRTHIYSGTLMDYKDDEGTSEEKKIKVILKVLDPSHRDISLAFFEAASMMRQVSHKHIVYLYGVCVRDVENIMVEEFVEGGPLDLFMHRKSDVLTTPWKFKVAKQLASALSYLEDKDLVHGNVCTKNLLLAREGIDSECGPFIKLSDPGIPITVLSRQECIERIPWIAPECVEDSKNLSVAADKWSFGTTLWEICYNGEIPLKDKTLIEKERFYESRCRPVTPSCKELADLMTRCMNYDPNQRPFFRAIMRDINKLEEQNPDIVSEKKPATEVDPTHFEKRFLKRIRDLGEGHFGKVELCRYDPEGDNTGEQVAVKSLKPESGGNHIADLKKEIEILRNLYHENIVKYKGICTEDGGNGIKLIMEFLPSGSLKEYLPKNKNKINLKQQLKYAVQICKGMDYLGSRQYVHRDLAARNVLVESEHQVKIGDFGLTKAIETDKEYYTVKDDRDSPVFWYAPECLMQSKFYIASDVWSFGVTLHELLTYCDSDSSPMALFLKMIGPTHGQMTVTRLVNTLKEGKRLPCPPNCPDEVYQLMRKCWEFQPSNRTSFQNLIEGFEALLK
Procedure: JAK kinase inhibition in vitro biochemical assays were performed using Kinase-Glo Plus luminescence kinase assay kit (Promega). Kinase activity was measured by quantitating the amount of ATP remaining in solution following a kinase reaction. Luminescent signal from the assay was correlated with the amount of ATP present and was inversely correlated with the amount of kinase activity. Compounds were diluted in 10% DMSO and 5 μl of the dilution were added to a 50 μl reaction so that the final concentration of DMSO was 1% in all of the reactions. […] All enzymatic reactions were conducted at 30° C. for 45 minutes. The 50 μl reaction mixture contained 40 mM Tris, pH 7.4, 10 mM MgCl2, 0.1 mg/ml BSA, 1 mM DTT, 10 μM ATP, Kinase substrate and the enzyme. After the enzymatic reaction, 50 μl of Kinase-Glo Plus Luminescence kinase assay solution (Promega) were added to each reaction and incubated in the plate for 15 minutes at room temperature. Luminescence signal was measured using a Bio-Tek Synergy 2 microplate reader. Kinase activity was performed in duplicate at each concentration and data were analyzed using Graphpad Prism. The difference between luminescence intensities in the absence of Kinase (Lut) and in the presence of Kinase (Luc) was defined as 100% activity (Lut−Luc). Using luminescence signal (Lu) in the presence of the compound, % activity was calculated as: % activity={Lut−Lu)/(Lut−Luc)}×100%, where Lu=the luminescence intensity in the presence of compound.

[4] = test system: NALM6.GFP.LUC.CD19 target cells
Procedure: The percent cytotoxicity to NALM6.GFP.LUC.CD19 target cells was measured by luciferase detection at each round.
In one embodiment, a serial killing assay is a combination of cell killing and how long it takes for CAR T cells to get exhausted under repeated stimulation. In one embodiment, a serial killing assay is a surrogate measure for CAR T cell persistence in vivo.

[5] = test system: macrophage; assay: Macrophage polarization, M1/M2 phenotypic markers by flow cytometry; assay type: cell-based
[6] = biological target: T1, JAK3 (Homo sapiens, UniProt P52333); assay: JAK kinase inhibition biochemical assay (Kinase-Glo Plus luminescence), JAK3
T1 sequence (P52333 1-1124): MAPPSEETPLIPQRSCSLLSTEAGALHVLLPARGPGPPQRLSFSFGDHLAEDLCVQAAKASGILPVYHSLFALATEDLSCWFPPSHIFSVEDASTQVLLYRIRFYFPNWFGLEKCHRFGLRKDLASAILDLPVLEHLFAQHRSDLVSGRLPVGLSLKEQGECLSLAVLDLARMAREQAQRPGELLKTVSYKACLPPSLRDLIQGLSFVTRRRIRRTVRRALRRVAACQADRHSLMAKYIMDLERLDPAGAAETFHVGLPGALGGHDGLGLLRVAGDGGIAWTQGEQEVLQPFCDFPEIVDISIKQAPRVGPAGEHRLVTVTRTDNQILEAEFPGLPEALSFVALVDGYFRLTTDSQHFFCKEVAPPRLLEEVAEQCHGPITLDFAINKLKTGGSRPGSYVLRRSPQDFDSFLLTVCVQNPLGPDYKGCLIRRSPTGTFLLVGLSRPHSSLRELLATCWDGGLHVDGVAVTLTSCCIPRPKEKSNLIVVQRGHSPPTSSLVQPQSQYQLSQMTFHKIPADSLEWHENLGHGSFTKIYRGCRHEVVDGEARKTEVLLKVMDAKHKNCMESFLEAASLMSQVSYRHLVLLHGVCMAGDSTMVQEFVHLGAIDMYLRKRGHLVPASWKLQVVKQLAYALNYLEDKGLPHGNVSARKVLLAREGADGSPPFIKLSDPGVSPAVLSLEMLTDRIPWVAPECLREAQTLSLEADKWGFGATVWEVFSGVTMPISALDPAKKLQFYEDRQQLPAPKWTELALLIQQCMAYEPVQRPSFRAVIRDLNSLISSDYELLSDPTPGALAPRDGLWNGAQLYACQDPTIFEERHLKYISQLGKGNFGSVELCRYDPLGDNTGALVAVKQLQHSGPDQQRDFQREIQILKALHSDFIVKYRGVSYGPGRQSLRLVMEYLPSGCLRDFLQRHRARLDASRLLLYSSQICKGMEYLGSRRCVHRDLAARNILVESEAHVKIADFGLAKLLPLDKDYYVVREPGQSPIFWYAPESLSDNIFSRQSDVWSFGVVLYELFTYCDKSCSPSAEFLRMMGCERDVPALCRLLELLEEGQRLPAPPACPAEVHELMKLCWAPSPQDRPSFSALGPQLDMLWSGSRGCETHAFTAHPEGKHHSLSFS
Procedure: as §1

[7] = test system: monocyte-derived macrophages; assay: Macrophage differentiation and M1/M2 polarization (surface markers by flow cytometry); assay type: cell-based, human; conditions: for CD209 surface expression in M2 polarized macrophage cultures: compared to normal M2 polarization culture conditions; for skewing of macrophage phenotype amidst M2 polarizing conditions (M1 markers CD38 and HLA-DR): separate experiment
Procedure: Monocytes were prepared from healthy donor PBMCs by negative selection for CD14+ monocytes using MACS (these cryopreserved monocytes provided by […], Alameda, CA) at >95% purity. Monocytes were differentiated into macrophages (M0) using traditional methods. In brief, 1×10^6 monocytes were plated into 12-well plate wells in a total volume of 2 mL macrophage culture media (MCM) (ImmunoCult™-SF Macrophage medium, Stem Cell Technologies) containing 50 ng/ml M-CSF and cultured for 6 days at 37° C./5% CO2. On day 2 of differentiation, cultures were replenished with fresh media and M-CSF. On day 6, a portion of the wells containing differentiated macrophages were replenished with 2 ml of fresh MCM containing 50 ng/ml M-CSF, 100 ng/ml LPS, 20 ng/ml IFNg and cultured for another 48 hours to polarize the macrophage to an M1 macrophage phenotype. Also on day 6, another portion of the wells containing differentiated macrophages were replenished with 2 ml of fresh R10 containing 50 ng/ml M-CSF and 20 ng/ml IL-4 and cultured for another 48 hours to polarize the macrophages to M2 macrophage phenotype. On day 8, all putative polarized macrophages were assessed for M1 and M2-specific surface markers using relevant M1/M2 immunophenotyping panels and flow cytometry. The cell surface markers used to assess monocytes, M0, M1 and M2 macrophage phenotypes included CD14, CD32, CD38, CD80, CD86, CD68, CD163, CD200R1, CD204, CD206, CD209, and HLA-DR.

With `Nc1nc2cccc(-c3ccc(CN4CCS(=O)(=O)CC4)cc3)n2n1` [GS-829845] the “persistence of T-cells (CD4 and CD8 counts)” value [1] was “Improved persistence”, the “serial killing assessed by Nalm6 cells (flow cytometry)” value [1] was “enhance serial killing in a dose-dependent manner” and the “impact on T-cell counts and Nalm6 cell counts” value [1] was “not impacted”. For the same compound, the IC50 [2] was 2160 nM, the “less potency than parent compound filgotinib” value [3] was “about 10 fold” and the IC50 [3] was 448 nM.
With `C[C@@H]1C[C@H]2[C@@H]3CCC4=CC(=O)C=C[C@]4(C)[C@@]3(F)[C@@H](O)C[C@]2(C)[C@@]1(O)C(=O)CO` [dexamethasone] the “impact on CAR-T serial killing (percent cytotoxicity)” value [4] was “differential impacts”.
`O=C(Nc1nc2cccc(-c3ccc(CN4CCS(=O)(=O)CC4)cc3)n2n1)C1CC1` [filgotinib] was tested, and the “persistence of T-cells (CD4 and CD8 counts)” value [1] was “Improved persistence”, the “serial killing assessed by Nalm6 cells (flow cytometry)” value [1] was “enhance serial killing in a dose-dependent manner” and the “impact on T-cell counts and Nalm6 cell counts” value [1] was “not impacted”. The macrophage polarization [5] was “promotes polarization of macrophages from M2 to M1 macrophages”, the “activity against JAK3” value ([6]; biochemical assay) was “limited activity” and the “inhibition of an M2 polarized phenotype” value ([7]; 10 μM, compared to no drug/normal M2 polarization culture conditions) was “stronger inhibition of an M2 polarized phenotype than Tofacitinib”. The “CD209 surface expression in M2 polarized macrophage cultures” value ([7]; 10 μM) was “No reduction”, the “influence on inhibiting M2 polarization by period of use” value ([7]; 10 μM, during 6-day differentiation versus only during M2 polarization) was “stronger influence on inhibiting M2 polarization when used during the 6-day macrophage differentiation” and the “inhibiting the formation of an M2 polarized phenotype” value ([7]; 10 μM, used during both macrophage differentiation and M2 polarization) was “even stronger”. For the same compound, the “skewing of macrophage phenotype amidst M2 polarizing conditions (M1 markers CD38 and HLA-DR)” value [7] was “skewed macrophages away from M2 towards M1 phenotype”.
`N#CCC1(n2cc(-c3ncnc4[nH]ccc34)cn2)CN(C2CCN(C(=O)c3ccnc(C(F)(F)F)c3F)CC2)C1` [itacitinib] was tested, and the IC50 [2] was 69 nM, the IC50 [3] was 13 nM and the IC50 ([6]; 10 μM ATP) was 921 nM.
`C[C@@H]1CCN(C(=O)CC#N)C[C@@H]1N(C)c1ncnc2[nH]ccc12` [tofacitinib] was tested, and the “CD209 surface expression in M2 polarized macrophage cultures” value ([7]; 10 μM) was “No reduction” and the “skewing of macrophage phenotype amidst M2 polarizing conditions (M1 markers CD38 and HLA-DR)” value [7] was “skewed macrophages away from M2 towards M1 phenotype”.
